Laboratory results published in article PMC2358886, “Evolution of pharmacologic specificity in the pregnane X receptor” (BMC Evolutionary Biology, 2008).
Like-named read-outs stand apart in the source and are kept apart here.

Tests used:
human PXR [1] = target: T1, human PXR (Homo sapiens, UniProt O75469)
T1 sequence (O75469 1-434): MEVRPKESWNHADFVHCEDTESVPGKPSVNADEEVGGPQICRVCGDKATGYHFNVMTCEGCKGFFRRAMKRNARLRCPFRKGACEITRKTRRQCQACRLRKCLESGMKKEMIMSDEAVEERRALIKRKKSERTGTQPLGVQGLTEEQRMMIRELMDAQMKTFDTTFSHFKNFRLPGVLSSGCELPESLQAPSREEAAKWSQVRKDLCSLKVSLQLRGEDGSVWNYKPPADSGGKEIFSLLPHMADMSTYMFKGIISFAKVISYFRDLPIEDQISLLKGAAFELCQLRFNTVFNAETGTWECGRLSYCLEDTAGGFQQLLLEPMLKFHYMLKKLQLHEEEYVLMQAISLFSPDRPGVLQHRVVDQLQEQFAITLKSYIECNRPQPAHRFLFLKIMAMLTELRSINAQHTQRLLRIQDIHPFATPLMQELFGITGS

zebrafish PXR [2] = target: T2, zebrafish PXR (Danio rerio, UniProt A5WYG8); conditions: for zfPXR Activity: -log(EC50), EC50 in molar units, activation of zebrafish PXR
T2 sequence (A5WYG8 144-430): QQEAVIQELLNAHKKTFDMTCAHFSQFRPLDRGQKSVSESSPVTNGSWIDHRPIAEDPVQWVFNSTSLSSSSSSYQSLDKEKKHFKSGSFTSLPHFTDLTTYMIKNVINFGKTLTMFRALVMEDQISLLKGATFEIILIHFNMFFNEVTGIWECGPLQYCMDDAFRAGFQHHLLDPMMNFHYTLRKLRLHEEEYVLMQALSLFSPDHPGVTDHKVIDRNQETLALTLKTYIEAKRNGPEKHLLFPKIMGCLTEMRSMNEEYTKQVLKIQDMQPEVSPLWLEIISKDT

HepG2 cells [3] = test system: HepG2 cells
zebrafish PXR [4] = target: T2, zebrafish PXR; assay: cell-based
human PXR [5] = target: T1, human PXR; assay: PXR activation luciferase reporter assay, human PXR in HepG2-NTCP cells
chicken PXR [6] = target: T3, chicken PXR (Gallus gallus, UniProt Q9DFH3)
T3 sequence (Q9DFH3 1-391): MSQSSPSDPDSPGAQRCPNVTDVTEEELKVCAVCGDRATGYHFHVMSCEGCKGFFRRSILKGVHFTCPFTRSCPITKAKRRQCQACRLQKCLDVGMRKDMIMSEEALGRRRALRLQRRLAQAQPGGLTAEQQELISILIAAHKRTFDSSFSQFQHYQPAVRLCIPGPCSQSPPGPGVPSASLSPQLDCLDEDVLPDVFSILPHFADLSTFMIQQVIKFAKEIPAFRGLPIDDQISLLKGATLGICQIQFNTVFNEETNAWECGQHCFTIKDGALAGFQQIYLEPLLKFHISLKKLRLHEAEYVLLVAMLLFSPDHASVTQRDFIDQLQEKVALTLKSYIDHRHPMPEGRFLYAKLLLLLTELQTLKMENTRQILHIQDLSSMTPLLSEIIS

chicken PXR [7] = target: T3, chicken PXR; assay: cell-based
rabbit PXR = target: T4, rabbit PXR (Oryctolagus cuniculus, UniProt Q9TU02); assay: PXR activation luciferase reporter assay, rabbit PXR; conditions: for Rabbit PXR efficacy, ε: relative to 50 μM 5α-pregnan-3,20-dione, assigned an efficacy of 1.0; for Rabbit PXR Activity: -log(EC50), EC50 in molar units
T4 sequence (Q9TU02 1-411): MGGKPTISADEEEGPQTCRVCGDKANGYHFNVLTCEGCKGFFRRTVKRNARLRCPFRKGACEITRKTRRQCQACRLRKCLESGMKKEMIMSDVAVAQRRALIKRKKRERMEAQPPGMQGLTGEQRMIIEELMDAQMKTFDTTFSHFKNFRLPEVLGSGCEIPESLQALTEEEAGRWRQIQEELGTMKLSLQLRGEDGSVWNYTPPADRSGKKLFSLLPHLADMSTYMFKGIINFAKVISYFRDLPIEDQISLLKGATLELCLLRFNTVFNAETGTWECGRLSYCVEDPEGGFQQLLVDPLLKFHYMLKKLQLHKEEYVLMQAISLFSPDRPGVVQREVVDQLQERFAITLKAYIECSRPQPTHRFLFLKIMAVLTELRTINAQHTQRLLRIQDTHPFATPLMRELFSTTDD

mouse PXR = target: T5, mouse PXR (Mus musculus, UniProt O54915); conditions: for Mouse PXR Activity: -log(EC50), EC50 in molar units
T5 sequence (O54915 1-431): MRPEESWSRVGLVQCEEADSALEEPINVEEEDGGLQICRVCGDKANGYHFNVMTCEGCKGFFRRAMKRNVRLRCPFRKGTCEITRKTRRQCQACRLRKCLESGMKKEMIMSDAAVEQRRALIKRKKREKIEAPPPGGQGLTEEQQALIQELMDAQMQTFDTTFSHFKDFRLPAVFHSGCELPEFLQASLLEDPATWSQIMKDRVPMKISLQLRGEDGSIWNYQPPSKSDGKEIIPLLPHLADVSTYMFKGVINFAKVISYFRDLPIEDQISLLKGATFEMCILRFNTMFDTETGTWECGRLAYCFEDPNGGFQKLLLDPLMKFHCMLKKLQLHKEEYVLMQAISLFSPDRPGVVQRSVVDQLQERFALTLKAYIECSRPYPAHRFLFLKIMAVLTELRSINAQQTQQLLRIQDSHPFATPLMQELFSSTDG

rat PXR = target: T6, rat PXR (Rattus norvegicus, UniProt Q9R1A7); conditions: for Rat PXR Activity: -log(EC50), EC50 in molar units
T6 sequence (Q9R1A7 1-431): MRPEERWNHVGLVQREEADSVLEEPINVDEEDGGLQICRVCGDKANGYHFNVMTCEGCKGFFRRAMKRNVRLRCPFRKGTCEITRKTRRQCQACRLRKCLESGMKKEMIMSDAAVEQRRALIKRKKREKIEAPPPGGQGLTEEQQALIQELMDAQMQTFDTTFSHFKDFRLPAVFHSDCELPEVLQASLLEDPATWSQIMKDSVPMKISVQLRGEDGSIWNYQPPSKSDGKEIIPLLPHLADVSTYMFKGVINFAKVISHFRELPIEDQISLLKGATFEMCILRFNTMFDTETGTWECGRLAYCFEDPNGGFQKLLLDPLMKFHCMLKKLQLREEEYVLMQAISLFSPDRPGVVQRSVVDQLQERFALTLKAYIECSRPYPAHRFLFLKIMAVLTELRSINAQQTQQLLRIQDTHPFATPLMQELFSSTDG

HepG2 cells [8] = assay: Toxicity assays in HepG2 cells (MTT and alamar blue reduction); conditions: lowest concentration that produced significant toxicity in the HepG2 cells
[9] = relative to 20 μM pregnenolone 16α-carbonitrile, assigned an efficacy of 1.0
[10] = -log(EC50), EC50 in molar units, activation of human PXR
[11] = -log(EC50), EC50 in molar units

Compound	Toxicity (HepG2 cells [3])	Mouse PXR Activity (mouse PXR)	Rat PXR Activity (rat PXR)	zfPXR Activity (zebrafish PXR [2])	Rabbit PXR Activity (rabbit PXR)	hPXR Activity (human PXR [5]; [10])	further results
C[C@@]12CCC[C@H]1[C@@H]1CC[C@@H]3C[C@H](O)CC[C@]3(C)[C@H]1CC2 [AN23, 5β-Androstan-3α-ol]	None						hPXR Efficacy (human PXR [1]; human): 1.12; zfPXR Efficacy (zebrafish PXR [2]; zebrafish): 0.33; EC50 (zebrafish PXR [4]): 2.57 µM; EC50 (human PXR [5]; hPXR Activity, -log(EC50), EC50 in molar units, activation of human PXR): 1.41 µM
CC(CCC(=O)NCC(=O)O)C1CCC2C3C(O)CC4CC(O)CCC4(C)C3CCC12C (stereo not shown) [BI006, Glycochenodeoxycholic acid]							Chicken PXR efficacy, ε (chicken PXR [6]; chicken): 0.41; EC50 (chicken PXR [7]): 25.1 µM
CC(CCC(=O)NCC(=O)O)C1CCC2C3CCC4CC(O)CCC4(C)C3CC(O)C12C (stereo not shown) [BI009, Glycodeoxycholic acid]							EC50 (rabbit PXR): 15.5 µM; Rabbit PXR efficacy, ε (rabbit PXR): 0.40
C[C@H](CCC(=O)NCCS(=O)(=O)O)[C@H]1CC[C@H]2[C@@H]3CC[C@@H]4C[C@H](O)CC[C@]4(C)[C@H]3C[C@H](O)[C@]12C [BI010, Taurodeoxycholic acid]							EC50 (rabbit PXR): 14.5 µM; Rabbit PXR efficacy, ε (rabbit PXR): 0.15
CC(CCC(=O)O)C1CCC2C3C(O)C(O)C4CC(O)CCC4(C)C3CCC12C (stereo not shown) [BI017, ω-Muricholic acid]		No effect	No effect				
C[C@H](CCC(=O)O)[C@H]1CC[C@H]2[C@@H]3[C@H](O)[C@@H](O)[C@@H]4C[C@H](O)CC[C@]4(C)[C@H]3CC[C@]12C [BI018, α-Muricholic acid]		4.59	3.95				Mouse PXR efficacy, ε (mouse PXR; [9]): 2.63; Rat PXR efficacy, ε (rat PXR; [9]): 1.31
C[C@H](CCC(=O)O)[C@H]1CC[C@H]2[C@@H]3[C@@H](O)[C@@H](O)[C@@H]4C[C@H](O)CC[C@]4(C)[C@H]3CC[C@]12C [BI019, β-Muricholic acid]		No effect	No effect				
C[C@H](CCC(=O)NCC(=O)O)[C@H]1CC[C@H]2[C@@H]3[C@H](O)C[C@@H]4C[C@H](O)CC[C@]4(C)[C@H]3C[C@H](O)[C@]12C [BI021, Glycocholic acid]		No effect	No effect				Chicken PXR Activity (chicken PXR [6]): No effect
C[C@H](CCC(=O)O)[C@H]1CC[C@H]2[C@@H]3C(=O)C[C@@H]4C[C@H](O)CC[C@]4(C)[C@H]3C[C@H](O)[C@]12C [BI042, 5β-Cholanic acid-3α,12α-diol-7-one]				None	4.31	4.24	Rabbit PXR efficacy, ε (rabbit PXR): 1.55; Toxicity (HepG2 cells [8]): None; hPXR Efficacy (human PXR [5]; relative to 10 μM rifampicin, assigned an efficacy of 1.0): 0.49
C[C@H](CCC(=O)NCCS(=O)(=O)O)[C@H]1CC[C@H]2[C@@H]3[C@@H](O)[C@@H](O)[C@@H]4C[C@H](O)CC[C@]4(C)[C@H]3CC[C@]12C [BI046, 5β-Cholanic acid-3α,6β,7β-triol N-(2-sulfoethyl)-amide]		No effect	No effect	None	No effect	None	Chicken PXR Activity (chicken PXR [6]; [11]): No effect; Toxicity (HepG2 cells [8]): None
CC(C)CCC[C@@H](C)[C@H]1CC[C@H]2[C@@H]3[C@H](O)C=C4C[C@@H](O)CC[C@]4(C)[C@H]3CC[C@]12C [BI047, 7α-Hydroxycholesterol]	None	No effect	No effect	None	No effect	None	Chicken PXR Activity (chicken PXR [6]; [11]): No effect
c1ccc2c(c1)cc1ccc3cccc4ccc2c1c34 [MI3, Benzo [a]pyren]	100 µM	4.86	4.85	4.00	No effect	4.75	hPXR Efficacy (human PXR [1]): 0.55; zfPXR Efficacy (zebrafish PXR [2]): 0.06; Mouse PXR efficacy, ε (mouse PXR): 0.94; Rat PXR efficacy, ε (rat PXR): 0.45; Chicken PXR efficacy, ε (chicken PXR [6]): 0.50; Chicken PXR Activity (chicken PXR [6]; [11]): 4.40
CC(=O)[C@H]1[C@H](C#N)C[C@H]2[C@@H]3CC=C4C[C@@H](O)CC[C@]4(C)[C@H]3CC[C@@]21C [PR13, 5-Pregnen-16α-cyano-3β-ol-20-one]	None	6.41 (ε = 1.0)	6.20 (ε = 1.0)	None		None	Mouse PXR efficacy, ε (mouse PXR): 6.41 (ε = 1.0); Rat PXR efficacy, ε (rat PXR): 6.20 (ε = 1.0)
